Assay results: the supplement of paper PMC10307832

Assays:
Experiment in all cases: relative viability (nuclei count vs DMSO), 5 days (fraction); higher = more cells survive
[1] = compound: CCn1c(-c2nonc2N)nc2c(C#CC(C)(C)O)ncc(OC[C@H]3CCCNC3)c21 + C[C@@H](Oc1cc(-c2cnn(C3CCNCC3)c2)cnc1N)c1c(Cl)ccc(F)c1Cl [Crizotinib] (partner 1 µM)
Method in brief: (§1)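 Values are medians from duplicate plates. Each reflects relative viability, defined as the nuclei count of treated wells over that of vehicle wells. Lung cancer cell lines in 1536-well plates were pin-tool dosed one day after seeding with one drug alone or with a fixed anchor-drug dose plus five library-drug doses (not always all listed) in √10 steps, then fixed, stained and imaged at 4× after 5 days.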

[2] = compound: CCn1c(-c2nonc2N)nc2c(C#CC(C)(C)O)ncc(OC[C@H]3CCCNC3)c21 + O=C(c1cc(Cc2n[nH]c(=O)c3ccccc23)ccc1F)N1CCN(C(=O)C2CC2)CC1 [Olaparib] (partner 8 µM)
Method in brief: as §1

BAM7 + Lapatinib = compound: CCOC1=CC=CC=C1N=NC2=C(NN(C2=O)C3=NC(=CS3)C4=CC=CC=C4)C [BAM7] + CS(=O)(=O)CCNCc1ccc(-c2ccc3ncnc(Nc4ccc(OCc5cccc(F)c5)c(Cl)c4)c3c2)o1 [Lapatinib] (partner 2 µM)
Method in brief: as §1

[3] = compound: CCn1c(-c2nonc2N)nc2c(C#CC(C)(C)O)ncc(OC[C@H]3CCCNC3)c21 + Nc1ncn([C@H]2C[C@H](O)[C@@H](CO)O2)c(=O)n1 [Decitabine] (partner 2 µM)
Method in brief: as §1

Row | Cell Line | relative viability ([1]; first compound 0.01 µM) | relative viability ([1]; first compound 0.03162 µM) | relative viability ([1]; first compound 0.1 µM) | relative viability ([1]; first compound 0.3162 µM) | relative viability ([1]; first compound 1 µM) | relative viability ([2]; first compound 0.01 µM) | relative viability ([2]; first compound 0.03162 µM) | relative viability ([2]; first compound 0.1 µM) | relative viability ([2]; first compound 0.3162 µM) | relative viability ([2]; first compound 1 µM) | relative viability (BAM7 + Lapatinib; first compound 0.5 µM) | relative viability (BAM7 + Lapatinib; first compound 5 µM) | relative viability (BAM7 + Lapatinib; first compound 15.81 µM) | relative viability (BAM7 + Lapatinib; first compound 50 µM) | relative viability ([3]; first compound 0.01 µM) | relative viability ([3]; first compound 0.03162 µM) | relative viability ([3]; first compound 0.1 µM) | relative viability ([3]; first compound 0.3162 µM) | relative viability ([3]; first compound 1 µM)
1 | 201T | 1.01 | 1.03 | 1.04 | 1 | 1.03 | 0.855 | 0.861 | 0.838 | 0.801 | 0.827 | 1.05 | 1.04 | 0.973 | 1.02 | 0.879 | 0.822 | 0.888 | 0.837 | 0.866
2 | A549 | 0.665 | 0.706 | 0.718 | 0.666 | 0.63 | 0.407 | 0.351 | 0.318 | 0.301 | 0.257 | 1.08 | 1.05 | 1.03 | 0.924 | 0.207 | 0.202 | 0.292 | 0.27 | 0.215
3 | A-427 | 0.925 | 0.966 | 0.978 | 0.828 | 0.846 | 0.737 | 0.203 | 0.75 | 0.683 | 0.709 | 1.01 | 1.09 | 1.03 | 1.09 | 0.558 | 0.61 | 0.589 | 0.54 | 0.562
4 | ABC-1 | 1.37 | 1.27 | 0.867 | 1.11 | 0.608 | 0.684 | – | 0.977 | 1.05 | 1.03 | – | 1.24 | 1.16 | 1.36 | 1.18 | – | 1.2 | 0.97 | 1.02
5 | CAL-12T | 0.8 | 0.653 | 0.546 | 0.738 | 0.84 | 0.599 | 0.708 | 0.72 | 0.699 | 0.729 | 0.677 | 0.581 | 0.599 | 0.692 | – | – | – | – | –
6 | Calu-6 | 0.758 | 0.814 | 0.868 | 0.756 | 0.786 | 0.546 | 0.589 | 0.605 | 0.558 | 0.644 | 1.06 | 1.09 | 1.05 | 1.07 | – | – | – | – | –
7 | ChaGo-K-1 | 1.05 | 1.14 | 1.13 | 1.05 | 1.19 | 0.397 | 0.443 | 0.408 | 0.408 | 0.398 | – | – | – | – | 0.483 | 0.5 | 0.559 | 0.487 | 0.533
8 | EBC-1 | 0.161 | 0.194 | 0.223 | 0.159 | 0.197 | 0.652 | 0.706 | 0.676 | 0.516 | 0.557 | 0.203 | 0.248 | 0.233 | 0.251 | – | – | – | – | –
9 | IA-LM | 0.824 | 0.601 | 0.862 | 0.703 | 0.323 | 0.942 | 0.791 | 0.937 | 1.3 | 0.786 | 0.766 | 0.816 | 0.784 | 0.748 | – | – | – | – | –
10 | LCLC-103H | 0.964 | 1.07 | 1.05 | 1.11 | 1.02 | 0.705 | 0.795 | 0.747 | 0.766 | 0.795 | – | – | – | – | 0.726 | 0.797 | 0.737 | 0.716 | 0.781
11 | NCI-H441 | 0.676 | 0.621 | 0.708 | 0.586 | 0.728 | 0.554 | 0.726 | 0.529 | 0.551 | 0.567 | – | – | – | – | 0.226 | 0.226 | 0.271 | 0.197 | 0.29
12 | NCI-H522 | – | – | – | – | – | 0.622 | 0.779 | 0.724 | 0.628 | 0.581 | – | – | – | – | 0.656 | 0.675 | 0.682 | 0.679 | 0.716
13 | NCI-H1299 | 0.935 | 0.927 | 0.948 | 0.919 | 0.997 | 0.954 | 0.965 | 0.936 | 0.995 | 0.984 | 0.835 | 1.01 | 0.954 | 0.964 | – | – | – | – | –
14 | NCI-H1395 | – | – | – | – | – | 0.464 | 0.412 | 0.472 | 0.433 | 0.372 | 0.826 | 1.03 | 1.17 | 1.33 | 0.819 | 0.735 | 0.742 | 0.583 | 0.677
15 | NCI-H1563 | 0.853 | 0.923 | 0.799 | 0.772 | 0.81 | – | – | – | – | – | 1.01 | 0.962 | 0.969 | 1.05 | – | – | – | – | –
16 | NCI-H1648 | – | – | – | – | – | 0.937 | 0.851 | 0.767 | 0.604 | 0.567 | – | – | – | – | 0.565 | 0.482 | 0.464 | 0.491 | 0.498
17 | NCI-H1703 | 0.465 | 0.656 | 0.59 | 0.482 | 0.376 | 0.406 | 0.506 | 0.468 | 0.587 | 0.31 | 1.1 | 1.17 | 0.936 | 1.2 | – | – | – | – | –
18 | NCI-H1793 | – | – | – | – | – | 0.765 | 1.26 | – | 0.742 | 0.933 | 0.8 | 0.636 | 0.64 | 0.93 | 0.478 | 0.522 | – | 0.534 | 0.503
19 | NCI-H2228 | 0.552 | 0.56 | 0.476 | 0.378 | 0.33 | 0.701 | 0.895 | 0.847 | 0.541 | 0.55 | 1.31 | 1.19 | 1.05 | 1.1 | – | – | – | – | –
20 | NCI-H2342 | – | – | – | – | – | 0.517 | 0.42 | 0.486 | 0.482 | 0.44 | – | – | – | – | 0.747 | 0.692 | 0.773 | 0.667 | 0.625
21 | SW 900 | – | – | – | – | – | 0.871 | 0.853 | 0.742 | 0.88 | 0.864 | – | – | – | – | 0.425 | 0.442 | 0.502 | 0.484 | 0.42
